In PubChem BioAssay (NCI) one finds TGI and GI50 data, which are given here for 18 molecules.

Test systems include CCRF-CEM leukemia; HCT-116 colon; HOP-62 NSCLC; LOX IMVI melanoma; NCI-H226 lung; NCI-H23 lung; NCI-H460 lung; SK-MEL-28 melanoma; U251 CNS; BT-549 breast.
Holding throughout (test): NCI anticancer screen, dose series, 48 h

Where “and” joins values, the source holds several entries; their conditions need not be identical. Equal entries are not always repeated.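 Briefly, cells in 96-well plates were exposed to five compound concentrations for 48 h, and endpoints were estimated by linear interpolation. Abbreviation: GI50, concentration required for 50% inhibition of growth. The concentration for full growth arrest is given as TGI.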 Where only a bound is given, the exact number is not on record here.

Consider `CCOc1ccc(NC(=O)C(=O)C(C(=O)c2ccc3ccccc3c2)C2OC(=O)c3ccccc32)cc1` (stereo unspecified), for which the TGI in the test on CCRF-CEM leukemia is 57.7 µM; with HCT-116 colon it was 35.1 µM; in the test on HOP-62 NSCLC, 39.4 µM; in the test with LOX IMVI melanoma it was 33.2 µM; in the test with NCI-H226 lung, 13.5 µM; in the test on NCI-H23 lung it was 33 µM. Further, the TGI with NCI-H460 lung was above 100 µM; with SK-MEL-28 melanoma it was 37.5 µM; in the test on U251 CNS it was 24.4 µM.
Take `CCCCCCCCC/C=C1\CCC(CN(C)C)C1=O` (stereo unspecified): the TGI in the test on CCRF-CEM leukemia was 4.82 µM; in the test on HCT-116 colon it was 3.67 µM; in the test on HOP-62 NSCLC, 4.32 µM; in the test with LOX IMVI melanoma, 2.59 µM; with NCI-H226 lung, 23.9 µM; in the test on NCI-H23 lung, 5.61 µM. Besides, the values for the TGI in the test with NCI-H460 lung, in the test with SK-MEL-28 melanoma and in the test on U251 CNS were 12.5 µM, 4.28 µM and 3.02 µM, respectively.
For `CNC(=O)OCc1c2ccncc2c(C)c2c1[nH]c1ccc(OC)cc12`, the TGI in the test on CCRF-CEM leukemia was 1.29 µM; in the test on HCT-116 colon it was 0.777 µM; in the test with HOP-62 NSCLC it was 1.07 µM; in the test on LOX IMVI melanoma it was above 100 µM; in the test with NCI-H226 lung, 0.784 µM; with NCI-H460 lung, 1.3 µM. Besides, the figures for the TGI with SK-MEL-28 melanoma and in the test with U251 CNS were 2.04 µM and 0.893 µM, respectively.
`CN(C)C(=O)c1ccc([N+](=O)[O-])cc1`: the TGI in the test with CCRF-CEM leukemia, in the test on HCT-116 colon, with HOP-62 NSCLC, with LOX IMVI melanoma, in the test on NCI-H226 lung and with NCI-H23 lung was above 100 µM throughout. The TGI with NCI-H460 lung, in the test with SK-MEL-28 melanoma and with U251 CNS was above 100 µM each time.
Regarding `COc1cc(C2c3cc4c(cc3[C@@H](NCCN3CCOCC3)C3COC(=O)[C@H]23)OCO4)cc(OC)c1O` (stereo partly specified), the TGI in the test on CCRF-CEM leukemia was above 75 µM; in the test with HCT-116 colon, 15.8 µM and > 17.5 µM; in the test with HOP-62 NSCLC, 2.71 µM and 3.8 µM; with LOX IMVI melanoma it was 7.95 µM and 5.02 µM; in the test with NCI-H226 lung it was 1.29 µM and 1.64 µM; in the test with NCI-H23 lung it was 4.89 µM and 7.21 µM. The TGI was 1.26 µM and 2.4 µM in the test with NCI-H460 lung; 16.6 µM and > 17.5 µM in the test on SK-MEL-28 melanoma; 5.46 µM and 5.53 µM with U251 CNS. Besides, the GI50 is 0.155 µM and 0.385 µM in the test with NCI-H226 lung; 1.17 µM and 2.45 µM in the test on NCI-H23 lung; 0.051 µM and 0.174 µM in the test on NCI-H460 lung.
For `N#CNC(=NCCc1c[nH]c2ccccc12)Oc1ccccc1`, the TGI in the test on CCRF-CEM leukemia, with HCT-116 colon, in the test on HOP-62 NSCLC, in the test with LOX IMVI melanoma, in the test on NCI-H226 lung and with NCI-H23 lung was above 100 µM throughout. Further, the TGI in the test with NCI-H460 lung, with SK-MEL-28 melanoma and in the test on U251 CNS was above 100 µM in each case.
`COC(=O)C(CC1=C(O)Nc2ccccc2N1)/C(=N/NC(N)=O)C(=O)Nc1ccccc1C` (stereo unspecified): the TGI is 48.8 µM in the test on CCRF-CEM leukemia; 36.8 µM in the test with HCT-116 colon; above 100 µM in the test on HOP-62 NSCLC; 35 µM in the test with LOX IMVI melanoma; above 100 µM in the test on NCI-H226 lung; above 100 µM in the test with NCI-H23 lung. The TGI in the test with NCI-H460 lung, in the test on SK-MEL-28 melanoma and in the test on U251 CNS was above 100 µM throughout.
Regarding `COC1=C(C)C(=O)c2c(cc3c(c2O)C(C)(CCC=C(C)C)C(C)O3)C1=O` (stereo unspecified), the TGI in the test on CCRF-CEM leukemia was above 100 µM; in the test on HCT-116 colon, above 100 µM; with HOP-62 NSCLC, 34.1 µM; in the test on LOX IMVI melanoma, above 100 µM; with NCI-H226 lung, 37.5 µM; with NCI-H23 lung it was 68.5 µM. In addition, the results for the TGI in the test with NCI-H460 lung, in the test on SK-MEL-28 melanoma and in the test on U251 CNS were 27.2 µM, above 100 µM and above 100 µM, respectively.
Consider `CN(C)C(=O)c1cnc2oc3ccc(O)cc3c2c1-c1ccccc1`, for which the GI50 with BT-549 breast was 6.2 µM; in the test on HCT-116 colon it was above 25 µM; with HOP-62 NSCLC it was above 25 µM; in the test on LOX IMVI melanoma, above 25 µM; with NCI-H23 lung, 11.5 µM; in the test with NCI-H460 lung, 16.2 µM. The GI50 with SK-MEL-28 melanoma is 5.12 µM; in the test on U251 CNS, above 25 µM. The TGI in the test with BT-549 breast, in the test with HCT-116 colon, in the test with HOP-62 NSCLC, in the test with LOX IMVI melanoma, in the test on NCI-H23 lung and in the test on NCI-H460 lung was above 25 µM each time. Further, the TGI in the test on SK-MEL-28 melanoma and in the test with U251 CNS was above 25 µM each time.
As to `CCc1cccc(C)c1NC(=O)C1=C(C)NC(C)=C(C(=O)Nc2c(C)cccc2CC)C1c1ccc2c(c1)OCO2`, the TGI turned out to be 51.2 µM in the test on CCRF-CEM leukemia; 36.9 µM with HOP-62 NSCLC; 42.5 µM with LOX IMVI melanoma; 49.5 µM with NCI-H226 lung; 31.4 µM in the test on NCI-H23 lung; 45.5 µM in the test on NCI-H460 lung. In addition, the TGI in the test on SK-MEL-28 melanoma amounted to 32.7 µM; with U251 CNS it was 32.1 µM.
As for `COc1cc([N+](=O)[O-])c(OC)cc1-c1nc2sccn2c1/C=N/N=C(N)N`, the GI50 in the test with BT-549 breast was 18.6 µM; in the test on HCT-116 colon, 21.7 µM; in the test with HOP-62 NSCLC it was 13.6 µM; in the test with LOX IMVI melanoma it was 17.9 µM; in the test with NCI-H23 lung, 14.8 µM; in the test with NCI-H460 lung, 28.3 µM. Further, the results for the GI50 with SK-MEL-28 melanoma and with U251 CNS were 27.9 µM and 3.66 µM, respectively. The TGI is 42.2 µM with BT-549 breast; 94.4 µM with HCT-116 colon; 46.9 µM in the test on HOP-62 NSCLC; 41.5 µM in the test with LOX IMVI melanoma; 71.9 µM in the test with NCI-H23 lung; above 100 µM in the test with NCI-H460 lung. Also, the TGI with SK-MEL-28 melanoma was found to be 63.4 µM; in the test with U251 CNS, 15 µM.
On to `CC(=O)O[C@H]1CCC2[C@@H]3CCC4c5nonc5CC[C@]4(C)C3CC[C@@]21C` (stereo partly specified), for which the GI50 in the test with CCRF-CEM leukemia and in the test with HCT-116 colon was above 100 µM each time. For the same molecule, the TGI with CCRF-CEM leukemia was above 100 µM; in the test with HCT-116 colon it was above 100 µM; in the test with HOP-62 NSCLC, above 10 µM; in the test on LOX IMVI melanoma it was above 10 µM; in the test with NCI-H226 lung it was above 10 µM; with NCI-H23 lung, above 10 µM. In addition, the TGI with NCI-H460 lung, in the test with SK-MEL-28 melanoma and with U251 CNS was above 10 µM each time.
For the molecule `C[CH2][Sn]([CH2]C)([O]C(=O)c1ccccc1F)[O][Sn]([CH2]C)([CH2]C)[O]C(=O)c1ccccc1F`, the GI50 was 4.67 µM in the test on CCRF-CEM leukemia; 38 µM in the test with HCT-116 colon; above 100 µM in the test on HOP-62 NSCLC; 19.4 µM in the test on LOX IMVI melanoma; 20.2 µM in the test on NCI-H226 lung; 15.8 µM in the test with NCI-H23 lung. Further, the GI50 in the test on NCI-H460 lung was above 54 µM; with SK-MEL-28 melanoma, 18.7 µM; in the test with U251 CNS, 17.1 µM. Besides, the TGI in the test with CCRF-CEM leukemia is 21.6 µM; with HCT-116 colon it was above 70.9 µM; with HOP-62 NSCLC, above 100 µM; in the test on LOX IMVI melanoma, 37.1 µM; in the test with NCI-H226 lung, 37.6 µM; in the test on NCI-H23 lung, 33.6 µM. Further, the TGI in the test with NCI-H460 lung is above 100 µM; in the test with SK-MEL-28 melanoma it was 33.4 µM; with U251 CNS, 31.6 µM.
For the molecule `Nc1nc(-c2ccco2)cc(-c2ccc(CO)o2)n1`, the TGI with CCRF-CEM leukemia, in the test with HCT-116 colon, in the test with HOP-62 NSCLC, with LOX IMVI melanoma, in the test on NCI-H226 lung and in the test on NCI-H23 lung was above 100 µM in each case. Besides, the TGI in the test on NCI-H460 lung and in the test on SK-MEL-28 melanoma was above 100 µM in each case.
`Cc1nn(C)c(COc2ccc(N3CCN(S(=O)(=O)N(C)C)CC3)cc2)c1-c1cccc2c(CCCOc3cccc4ccccc34)c(C(=O)O)n(CCN3CCOCC3)c12`: the GI50 in the test on CCRF-CEM leukemia was 4.19 µM; in the test on HCT-116 colon, 3.08 µM; in the test with HOP-62 NSCLC, 3.03 µM; in the test with LOX IMVI melanoma, 3.16 µM; in the test with NCI-H226 lung, 3.19 µM; in the test with NCI-H23 lung, 3.54 µM. The results for the GI50 in the test with NCI-H460 lung, in the test on SK-MEL-28 melanoma and in the test with U251 CNS were 3.17 µM, 2.07 µM and 3.13 µM, respectively. Also, the TGI with CCRF-CEM leukemia was above 100 µM; in the test on HCT-116 colon, 15 µM; in the test on HOP-62 NSCLC it was 14.4 µM; in the test with LOX IMVI melanoma, 11.6 µM; with NCI-H226 lung, 15.9 µM; in the test with NCI-H23 lung, 14.7 µM. The TGI came to 11.1 µM in the test with NCI-H460 lung, 4.87 µM in the test with SK-MEL-28 melanoma and 11.5 µM with U251 CNS.
As for `O=C(NC(=Nc1ccccc1)SCCSC(=Nc1ccccc1)NC(=O)c1cccs1)c1cccs1`, the TGI in the test on CCRF-CEM leukemia, in the test on HCT-116 colon, with HOP-62 NSCLC, with LOX IMVI melanoma, in the test with NCI-H226 lung and with NCI-H23 lung was above 100 µM in each case. The TGI with NCI-H460 lung, with SK-MEL-28 melanoma and with U251 CNS was above 100 µM each time.
On to `O=S(=O)(/C=C/CS(=O)(=O)c1ccccc1)c1ccccc1`, for which the TGI in the test on CCRF-CEM leukemia is above 100 µM; in the test with HCT-116 colon, 57.1 µM; in the test on HOP-62 NSCLC, 46.2 µM; with LOX IMVI melanoma, 57.4 µM; in the test with NCI-H226 lung, 61.9 µM; with NCI-H23 lung, 50 µM. In addition, the values for the TGI with NCI-H460 lung, in the test with SK-MEL-28 melanoma and in the test on U251 CNS were 63.9 µM, above 100 µM and 77.5 µM, respectively.
Consider `COc1cc2c(cc1OC)[C@@H](Nc1ccc(F)cc1)C1COC(=O)[C@@H]1C2c1cc(OC)c(O)c(OC)c1` (stereo partly specified), for which the TGI in the test on CCRF-CEM leukemia is 0.846 µM; with HCT-116 colon, above 100 µM; with HOP-62 NSCLC, 2.49 µM; with LOX IMVI melanoma, above 43.4 µM; with NCI-H226 lung, 1.64 µM; with NCI-H23 lung it was 18.6 µM. Besides, the TGI with NCI-H460 lung is 2.16 µM; in the test with SK-MEL-28 melanoma it was above 100 µM; with U251 CNS, 4.03 µM.
